Biological target: T1, SMYD2 (Homo sapiens, UniProt Q9NRG4)
T1 construct: Full length SMYD2 (NP 064582.2) was cloned; His6 (N, cleaved yes); FLAG (N); made in house; host or cells: Sf9 insect cells
Test: SMYD2 Biochemical Assay (3H-SAM, biotinylated peptide substrate, Flashplate)
Details: IC50 values are an average of n = 1 to n = 50; read-out: SMYD2 Biochem IC50 (μM)*
Outline: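 Methyltransferase activity tracked as 3H transfer from 10 nM 3H-SAM to 60 nM biotinylated peptide, counted after streptavidin Flashplate capture and normalised to DMSO and 1000 uM SAH controls. Enzyme: 1.5 nM full-length Sf9-expressed SMYD2, 30 min compound pre-incubation at room temperature, in Bicine pH 7.6 buffer with 2% DMSO; reactions quenched with 600 uM unlabelled SAM; IC50 from 3- or 4-parameter fit.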

T1 sequence (Q9NRG4 whole entry): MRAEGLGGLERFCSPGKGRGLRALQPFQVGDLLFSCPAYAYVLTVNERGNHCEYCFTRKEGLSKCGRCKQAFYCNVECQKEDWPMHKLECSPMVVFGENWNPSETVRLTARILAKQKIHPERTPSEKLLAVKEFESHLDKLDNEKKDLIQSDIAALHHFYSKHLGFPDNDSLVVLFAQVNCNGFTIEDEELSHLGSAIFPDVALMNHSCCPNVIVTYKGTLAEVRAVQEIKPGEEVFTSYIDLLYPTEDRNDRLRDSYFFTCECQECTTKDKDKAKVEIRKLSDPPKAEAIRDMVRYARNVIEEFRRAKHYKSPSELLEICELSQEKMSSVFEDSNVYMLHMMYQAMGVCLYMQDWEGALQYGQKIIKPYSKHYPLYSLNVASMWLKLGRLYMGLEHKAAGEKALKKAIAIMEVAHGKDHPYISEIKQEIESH

Row | IC50 [µM] | Structure (SMILES)
1 | > 50 | C[C@H]1CN(c2ccccc2)C[C@H]1NC(=O)c1cc(C2CC2)on1 (racemic) [compound 272, (±)-cis-5-cyclopropyl-N-[4-methyl-1-phenylpyrrolidin-3-yl]-1,2-oxazole-3-carboxamide]
2 | > 50 | C[C@H]1CN(c2ccc(Cl)cc2)C[C@H]1NC(=O)c1cc(C2CC2)on1 (racemic) [compound 273, (±)-cis[N-[1-(4-chloro-phenyl)-4-methyl-pyrrolidin-3-yl]-5-cyclopropyl-1,2-oxazole-3-carboxamide]
3 | 6.3 | C[C@H]1CN(Cc2ccc3c(c2)OCCO3)C[C@H]1NC(=O)c1cc(C2CC2)on1 (racemic) [compound 274, (±)-cis-5-cyclopropyl-N-[1-(2,3-dihydro-1,4-benzodioxin-6-ylmethyl)-4-methylpyrrolidin-3-yl]-1,2-oxazole-3-carboxamide]
4 | 3.02 | C[C@H]1CN(Cc2ccccc2Cl)C[C@H]1NC(=O)c1cc(C2CC2)on1 (racemic) [compound 275, (±)-cis-N-{1-[(2-chloro-phenyl)methyl]-4-methyl-pyrrolidin-3-yl}-5-cyclopropyl-1,2-oxazole-3-carboxamide]
5 | 5.85 | C[C@H]1CN(CCO)C[C@H]1NC(=O)c1cc(C2CC2)on1 (racemic) [compound 276, (±)-cis-5-cyclopropyl-N-[1-(2-hydroxyethyl)-4-methylpyrrolidin-3-yl]-1,2-oxazole-3-carboxamide]
6 | > 50 | C[C@@H]1CN(CC(=O)N(C)C)C[C@H]1NC(=O)c1cc(C2CC2)on1 (racemic) [compound 277, (±)-trans-5-cyclopropyl-N-{1-[(dimethyl-carbamoyl)methyl]-4-methylpyrrolidin-3-yl}-1,2-oxazole-3-carboxamide]

The next lines start with the compound.

Row | Structure (SMILES) | IC50 [µM]
7 | C[C@H]1CN(Cc2cccc3[nH]ncc23)C[C@H]1NC(=O)c1cc(C2CC2)on1 (racemic) [compound 265, (±)-cis-5-cyclopropyl-N-[1-(1H-indazol-4-ylmethyl)-4-methylpyrrolidin-3-yl]-1,2-oxazole-3-carboxamide] | 4.89
8 | C[C@H]1CN(Cc2cccc3cccnc23)C[C@H]1NC(=O)c1cc(C2CC2)on1 (racemic) [compound 266, (±)-cis-5-cyclopropyl-N-[4-methyl-1-(quinolin-8-ylmethyl)pyrrolidin-3-yl]-1,2-oxazole-3-carboxamide] | 12.3
9 | C[C@H]1CN(CC(=O)N(C)C)C[C@H]1NC(=O)c1cc(C2CC2)on1 (racemic) [compound 267, (±)-cis-5-cyclopropyl-N-[1-[(dimethyl-carbamoyl)methyl]-4-methylpyrrolidin-3-yl]-1,2-oxazole-3-carboxamide] | > 50
10 | Cc1cc(CN2C[C@H](C)[C@H](NC(=O)c3cc(C4CC4)on3)C2)oc1C (racemic) [compound 268, (±)-cis-5-cyclopropyl-N-{1-[(4,5-dimethyl-furan-2-yl)methyl]-4-methylpyrrolidin-3-yl]-1,2-oxazole-3-carboxamide] | 5.3
11 | C[C@H]1CN(Cc2cc3ccccc3nc2Cl)C[C@H]1NC(=O)c1cc(C2CC2)on1 (racemic) [compound 269, (±)-cis-N-[1-[(2-chloro-quinolin-3-yl)methyl]-4-methylpyrrolidin-3-yl]-5-cyclopropyl-1,2-oxazole-3-carboxamide] | 4.17
12 | C[C@H]1CN(CC(=O)N2CCOCC2)C[C@H]1NC(=O)c1cc(C2CC2)on1 (racemic) [compound 270, (±)-cis-5-cyclopropyl-N-[4-methyl-1-[2-(morpholin-4-yl)-2-oxoethyl]pyrrolidin-3-yl]-1,2-oxazole-3-carboxamide] | > 50
13 | C[C@@H]1CN(CC(=O)N2CCOCC2)C[C@H]1NC(=O)c1cc(C2CC2)on1 (racemic) [compound 271, (±)-trans-5-cyclopropyl-N-[4-methyl-1-[2-(morpholin-4-yl)-2-oxoethyl]pyrrolidin-3-yl]-1,2-oxazole-3-carboxamide] | > 50

From US20170253601A1, “Substituted Pyrrolidine Compounds” (EPIZYME, INC., priority 2014, published 2017)
